From patent publication US11629171B2, “Beta-hairpin peptidomimetics” (POLYPHOR AG, priority 2017, dated 2023)
Values after ≈ are worked out from the molar mass of the structure shown. Where a SMILES comes first, the peptide text is derived from it. Bridges are numbered along the chain shown (N, C = ends). Roman numbers before positions name the chains, in order. [ ]: non-standard residue; d: D form. Hiv = CC(C)[C@H](O)C(=O)O; dDab = NCC[C@@H](N)C(=O)O; hSer = N[C@@H](CCO)C(=O)O; Dab = NCC[C@H](N)C(=O)O; Abu = CC[C@H](N)C(=O)O; Dap = NC[C@H](N)C(=O)O

Assays:
[1] = tested on: male ICR mice; assay: Tolerability in a mouse model (Maximum Tolerated Dose assay); assay type: in vivo; settings: groups of 3
Method in brief: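 Groups of 3 male ICR mice weighing 23±3 g received two subcutaneous doses, 12 h apart, of 30 or 40 mg/kg in saline adjusted to pH 6.5-7.6. Observation for 30 min after each dose covered autonomic effects and acute toxicity, including death.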

[2] = tested on: Klebsiella pneumoniae SSI #3010; assay type: cell-based; settings: SSI #3010
Method in brief: (§1)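 MIC in μg/mL, read as absence of visible growth after 18-20 h incubation at 35° C, by standard CLSI microdilution. Peptides tested in two-fold serial dilution in cation-adjusted MH-II broth containing 0.002% (final) Polysorbate 80, against roughly 10^6 CFU/mL inocula.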

[3] = tested on: Escherichia coli 926415; assay type: cell-based; settings: 926415
Method in brief: as §1

[4] = tested on: Enterobacter cloacae 848840; assay type: cell-based; settings: 848840
Method in brief: as §1

[5] = tested on: Pseudomonas aeruginosa ATCC 27853; assay type: cell-based; settings: ATCC 27853
Method in brief: as §1

[6] = tested on: Escherichia coli ATCC 25922; assay type: cell-based; settings: ATCC 25922
Method in brief: as §1

[7] = tested on: Acinetobacter baumannii 872842; assay type: cell-based; settings: 872842
Method in brief: as §1

[8] = tested on: Klebsiella pneumoniae 968733; assay type: cell-based; settings: 968733
Method in brief: as §1

[9] = tested on: Acinetobacter baumannii DSM 30008; assay type: cell-based; settings: DSM 30008
Method in brief: as §1

[10] = tested on: human red blood cells (hRBC); assay: Hemolysis; assay type: cell-based; settings: red cells of human, 1 h, 200
Method in brief: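 hRBC washed 4× in PBS; 200 μg/mL peptide + 20% (v/v) hRBC, 1 h, 37° C, 300 rpm. Spin, supernatant ~7.5-fold diluted, OD540 blank corrected. % hemolysis = OD540 peptide / OD540 Triton X-100 × 100.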

[11] = 2 × 40 mg/kg s.c. at a 12-hr interval
[12] = 2 × 30 mg/kg s.c. at a 12-hr interval

Row | SMILES | Mortality and dose [1, 11] | MIC [2] [µg/mL] | MIC [3] [µg/mL] | MIC [4] [µg/mL] | MIC [5] [µg/mL] | MIC [6] [µg/mL] | MIC [7] [µg/mL] | MIC [8] [µg/mL] | MIC [9] [µg/mL] | Hemolysis at 200 μg/mL [10] [%] | Mortality and dose [1, 12] | Klebsiella pneumoniae SSI #3010 MIC [2] [µg/mL] | Pseudomonas aeruginosa ATCC 27853 MIC [5] [µg/mL] | Escherichia coli ATCC 25922 MIC [6] [µg/mL] | Acinetobacter baumannii DSM 30008 MIC [9] [µg/mL]
1 | CC(C)C[C@@H]1NC(=O)[C@@H](CC(C)C)NC(=O)[C@H](CCN)NC(=O)[C@@H](NC(=O)[C@H](CN)NC(=O)[C@@H](NC(=O)[C@H](CCN)NC(=O)CC[C@@H]2NC(=O)[C@H](CO)NC(=O)[C@H](Cc3ccc(O)cc3)NC(=O)[C@@H](NC(=O)[C@@H](O)C(C)C)CSSC[C@@H](C(=O)N[C@@H](CO)C(N)=O)NC(=O)[C@H](C(C)C)NC(=O)[C@H](CO)NC(=O)[C@H](Cc3c[nH]c4ccccc34)NC(=O)[C@H](CCN)NC(=O)[C@@H](CCN)NC2=O)[C@@H](C)O)CCNC(=O)[C@H]([C@@H](C)O)NC(=O)[C@H](CCN)NC(=O)[C@H](CCN)NC1=O [Ex. 270] (I: H-[Hiv]CYSE[dDab][Dab]WSVCS-NH2 / II: [Dab]T[Dap][Dab][Dab][dL]L[Dab][Dab]T; disulfide I:2-I:11; amide I:5-II:N; lactam II:4-II:C) | 0/3 died at 2 × 40 mg/kg | 0.0625 (≈ 0.0265 µM) | 0.125 (≈ 0.053 µM) | 0.25 (≈ 0.106 µM) | 0.125 (≈ 0.053 µM) | 0.0625 (≈ 0.0265 µM) | 0.0625 (≈ 0.0265 µM) | 0.125 (≈ 0.053 µM) | 0.0625 (≈ 0.0265 µM) | <1 |  |  |  |  | 
2 | CC(=O)N[C@H](C(=O)N[C@H]1CSSC[C@@H](C(=O)N[C@@H](Cc2ccc(O)cc2)C(N)=O)NC(=O)[C@H](C(C)C)NC(=O)[C@H](CO)NC(=O)[C@H](Cc2c[nH]c3ccccc23)NC(=O)[C@H](CCO)NC(=O)[C@@H](CCN)NC(=O)[C@H](CCC(=O)N[C@@H](CCN)C(=O)N[C@H](C(=O)N[C@@H](CCN)C(=O)N[C@H]2CCNC(=O)[C@H]([C@@H](C)O)NC(=O)[C@H](CCN)NC(=O)[C@H](CCN)NC(=O)[C@H](CC(C)C)NC(=O)[C@@H](CC(C)C)NC(=O)[C@H](CCN)NC2=O)[C@@H](C)O)NC(=O)[C@H](CCN)NC(=O)[C@H](CO)NC1=O)C(C)C [Ex. 65] (I: Ac-VCS[Dab]E[dDab][hSer]WSVCY-NH2 / II: [Dab]T[Dab][Dab][Dab][dL]L[Dab][Dab]T; disulfide I:2-I:11; amide I:5-II:N; lactam II:4-II:C) |  | 0.25 (≈ 0.103 µM) | 0.5 (≈ 0.206 µM) | 4 (≈ 1.65 µM) | 0.125 (≈ 0.0515 µM) | 0.125 (≈ 0.0515 µM) | 0.25 (≈ 0.103 µM) | 0.5 (≈ 0.206 µM) | 0.125 (≈ 0.0515 µM) | <1 | 0/3 died at 2 × 30 mg/kg |  |  |  | 
3 | CC[C@@H]1NC(=O)[C@@H](CC(C)C)NC(=O)[C@H](CCN)NC(=O)[C@@H](NC(=O)[C@H](CN)NC(=O)[C@@H](NC(=O)[C@H](CCN)NC(=O)CC[C@@H]2NC(=O)[C@H](CCN)NC(=O)[C@H](Cc3ccc(O)cc3)NC(=O)[C@@H](NC(=O)[C@@H](NC(C)=O)C(C)C)CSSC[C@@H](C(=O)N[C@@H](CO)C(N)=O)NC(=O)[C@H](C(C)C)NC(=O)[C@H](CO)NC(=O)[C@H](Cc3c[nH]c4ccccc34)NC(=O)[C@H](CO)NC(=O)[C@@H](CCN)NC2=O)[C@@H](C)O)CCNC(=O)[C@H]([C@@H](C)O)NC(=O)[C@H](CCN)NC(=O)[C@H](CCN)NC1=O [Ex. 137] (I: Ac-VCY[Dab]E[dDab]SWSVCS-NH2 / II: [Dab]T[Dap][Dab][Dab][dL][Abu][Dab][Dab]T; disulfide I:2-I:11; amide I:5-II:N; lactam II:4-II:C) |  | 0.0625 (≈ 0.0264 µM) | 0.125 (≈ 0.0527 µM) | 0.0625 (≈ 0.0264 µM) | 0.125 (≈ 0.0527 µM) | 0.03125 (≈ 0.0132 µM) | 0.125 (≈ 0.0527 µM) | 0.125 (≈ 0.0527 µM) | 0.0625 (≈ 0.0264 µM) | 1 | 0/3 died at 2 × 30 mg/kg |  |  |  | 
4 | CC[C@@H]1NC(=O)[C@H](CO)NC(=O)[C@H](Cc2c[nH]c3ccccc23)NC(=O)[C@H](CO)NC(=O)[C@@H](CCN)NC(=O)[C@H](CCC(=O)N[C@@H](CCN)C(=O)N[C@H](C(=O)N[C@@H](CN)C(=O)N[C@H]2CCNC(=O)[C@H]([C@@H](C)O)NC(=O)[C@H](CCN)NC(=O)[C@H](CCN)NC(=O)[C@H](CC)NC(=O)[C@@H](CC(C)C)NC(=O)[C@H](CCN)NC2=O)[C@@H](C)O)NC(=O)[C@H](CCN)NC(=O)[C@H](Cc2ccc(O)cc2)NC(=O)[C@@H](NC(=O)[C@@H](NC(C)=O)C(C)C)CSSC[C@@H](C(=O)N[C@@H](CO)C(N)=O)NC1=O [Ex. 339] (I: Ac-VCY[Dab]E[dDab]SWS[Abu]CS-NH2 / II: [Dab]T[Dap][Dab][Dab][dL][Abu][Dab][Dab]T; disulfide I:2-I:11; amide I:5-II:N; lactam II:4-II:C) | 0/3 died at 2 × 40 mg/kg |  | 0.5 (≈ 0.212 µM) | 0.125 (≈ 0.053 µM) |  |  | 0.125 (≈ 0.053 µM) | 0.5 (≈ 0.212 µM) |  | <1 |  | 0.0625 | 0.125 | 0.0625 | 0.0625
5 | CC(=O)N[C@H](C(=O)N[C@H]1CSSC[C@@H](C(=O)N[C@@H](CO)C(N)=O)NC(=O)[C@H](C(C)C)NC(=O)[C@H](CO)NC(=O)[C@H](Cc2c[nH]c3ccccc23)NC(=O)[C@H](CCC(=O)N[C@@H](CCN)C(=O)N[C@H](C(=O)N[C@@H](CN)C(=O)N[C@H]2CCNC(=O)[C@H]([C@@H](C)O)NC(=O)[C@H](CCN)NC(=O)[C@H](CCN)NC(=O)[C@H](CC(C)C)NC(=O)[C@@H](CC(C)C)NC(=O)[C@H](CCN)NC2=O)[C@@H](C)O)NC(=O)[C@@H](CCN)NC(=O)[C@H](Cc2c[nH]cn2)NC(=O)[C@H](CCN)NC(=O)[C@H](Cc2ccc(O)cc2)NC1=O)C(C)C [Ex. 365] (I: Ac-VCY[Dab]H[dDab]EWSVCS-NH2 / II: [Dab]T[Dap][Dab][Dab][dL]L[Dab][Dab]T; disulfide I:2-I:11; amide I:7-II:N; lactam II:4-II:C) | 0/3 died at 2 × 40 mg/kg |  | 0.125 (≈ 0.051 µM) | 0.0625 (≈ 0.0255 µM) |  |  | 0.0625 (≈ 0.0255 µM) | 0.125 (≈ 0.051 µM) |  | <1 |  | 0.0625 | 0.125 | 0.03125 | 0.0625
6 | CC(=O)N[C@H](C(=O)N[C@H]1CCNC(=O)C[C@@H](C(=O)N[C@@H](CO)C(N)=O)NC(=O)[C@H](C(C)C)NC(=O)[C@H](CO)NC(=O)[C@H](Cc2c[nH]c3ccccc23)NC(=O)CNC(=O)[C@@H](CCN)NC(=O)[C@H](CCC(=O)N[C@@H](CCN)C(=O)N[C@H](C(=O)N[C@@H](CN)C(=O)N[C@H]2CCNC(=O)[C@H]([C@@H](C)O)NC(=O)[C@H](CCN)NC(=O)[C@H](CCN)NC(=O)[C@H](CC(C)C)NC(=O)[C@@H](CC(C)C)NC(=O)[C@H](CCN)NC2=O)[C@@H](C)O)NC(=O)[C@H](CCN)NC(=O)[C@H](Cc2ccc(O)cc2)NC1=O)C(C)C [Ex. 351] (I: Ac-V[Dab]Y[Dab]E[dDab]GWSVDS-NH2 / II: [Dab]T[Dap][Dab][Dab][dL]L[Dab][Dab]T; lactam I:2-I:11, II:4-II:C; amide I:5-II:N) | 0/3 died at 2 × 40 mg/kg |  | 0.5 (≈ 0.212 µM) | 0.25 (≈ 0.106 µM) |  |  | 0.25 (≈ 0.106 µM) | 1 (≈ 0.423 µM) |  | <1 |  | 0.0625 | 0.125 | 0.0625 | 0.0625
